Read-outs that look alike come from different tables or passages of the source.
What was measured:
[1] = system: HCT116 cells; experiment: HCT116 (MSI) 7 day viability, CellTiter Glo; format: cell-based; conditions: 7 days, read-out: HCT116 (MSI) Viability 7 Day Abs AC50
Method in brief: (§1)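 Seven-day viability is assessed with CellTiter Glo after compounds, diluted in ten 3-fold steps in DMSO, are exposed to HCT116 (50 cells/well) or HT29 (500 cells/well). Reported IC50 is the geometric mean of at least two independent runs.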

[2] = system: HT29 cells; experiment: HT29 (MSS) 7 day viability, CellTiter Glo; format: cell-based; conditions: 7 days, read-out: HT29 (MSS) Viability 7 Day CTGAbs AC50
Method in brief: as §1

[3] = target: T1, Full length WRN protein (aa 2-1432) (Homo sapiens (Human), UniProt Q14191); experiment: WRN ATPase ADP-Glo biochemical assay, Assay Format A (10 μM ATP); conditions: 0.25 nM WRN, 100 nM C6.18 ssDNA, 30 min preincubation, read-out: ATPase ADPGlo AC50 (uM)- Assay Format A
T1 sequence (Q14191 2-1432): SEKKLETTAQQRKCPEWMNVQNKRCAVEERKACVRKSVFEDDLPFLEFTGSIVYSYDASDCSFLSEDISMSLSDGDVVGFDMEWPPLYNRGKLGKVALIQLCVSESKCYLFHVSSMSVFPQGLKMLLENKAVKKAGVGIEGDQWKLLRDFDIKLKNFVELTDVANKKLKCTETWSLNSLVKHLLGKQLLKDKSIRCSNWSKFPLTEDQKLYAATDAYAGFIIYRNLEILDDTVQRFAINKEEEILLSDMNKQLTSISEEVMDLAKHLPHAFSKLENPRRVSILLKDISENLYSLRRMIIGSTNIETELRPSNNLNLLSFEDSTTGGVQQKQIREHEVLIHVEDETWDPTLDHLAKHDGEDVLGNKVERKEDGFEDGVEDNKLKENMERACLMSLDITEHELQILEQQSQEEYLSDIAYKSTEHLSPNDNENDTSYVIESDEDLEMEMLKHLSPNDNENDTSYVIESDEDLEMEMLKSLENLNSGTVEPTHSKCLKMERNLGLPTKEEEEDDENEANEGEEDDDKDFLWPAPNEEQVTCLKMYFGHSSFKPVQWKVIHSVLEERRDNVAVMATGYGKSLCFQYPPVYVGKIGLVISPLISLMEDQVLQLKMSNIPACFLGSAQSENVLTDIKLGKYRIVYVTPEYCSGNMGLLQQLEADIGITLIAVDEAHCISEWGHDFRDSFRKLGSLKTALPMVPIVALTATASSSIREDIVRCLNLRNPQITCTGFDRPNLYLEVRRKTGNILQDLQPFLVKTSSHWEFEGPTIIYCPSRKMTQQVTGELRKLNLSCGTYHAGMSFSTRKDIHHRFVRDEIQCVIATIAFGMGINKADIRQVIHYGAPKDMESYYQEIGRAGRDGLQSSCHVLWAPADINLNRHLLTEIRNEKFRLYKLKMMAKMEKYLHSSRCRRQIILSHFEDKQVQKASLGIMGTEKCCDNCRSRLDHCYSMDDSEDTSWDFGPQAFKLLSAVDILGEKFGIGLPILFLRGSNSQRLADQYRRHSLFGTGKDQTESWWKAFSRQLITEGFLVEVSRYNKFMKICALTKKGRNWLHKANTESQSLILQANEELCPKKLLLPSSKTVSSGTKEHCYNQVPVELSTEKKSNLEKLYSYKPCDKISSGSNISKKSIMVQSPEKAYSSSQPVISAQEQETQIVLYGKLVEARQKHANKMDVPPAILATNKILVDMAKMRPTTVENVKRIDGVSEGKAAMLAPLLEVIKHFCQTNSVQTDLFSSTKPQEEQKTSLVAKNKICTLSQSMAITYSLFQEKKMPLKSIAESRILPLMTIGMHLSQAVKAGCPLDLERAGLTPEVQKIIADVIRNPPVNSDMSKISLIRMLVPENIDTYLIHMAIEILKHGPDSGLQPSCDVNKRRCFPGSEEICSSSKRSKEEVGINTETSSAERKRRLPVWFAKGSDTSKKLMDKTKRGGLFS
Method in brief: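 Sf9-expressed FLAG-AVI-TEV-tagged WRN (0.5 nM) preincubated 30 min with compound (11-point 3-fold dilution). Reaction started with 200 nM C6.18 39-mer ssDNA and 20 μM ATP (addition concentrations), run 30 min at room temperature. ADP measured by ADP-Glo luminescence; IC50 from four-parameter fit, geometric mean of ≥2 runs.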

[4] = target: T1, Full length WRN protein (aa 2-1432); experiment: WRN ATPase ADP-Glo biochemical assay, Assay Format B (100 μM ATP); conditions: 0.25 nM WRN, 100 nM C6.18 ssDNA, 60 min preincubation, read-out: ATPase ADPGlo AC50 (uM)- Assay Format B

Row | AC50 [3] [µM] | AC50 [4] [µM] | SMILES | AC50 ([1]; Homo sapiens, HCT-116, 168 h) [nM] | AC50 ([2]; Homo sapiens, HT-29, 168 h) [nM] | AC50 [1] [nM] | AC50 [2] [nM]
1 | < 0.0015 | 0.005 to 0.015 | C=CC(=O)N1CCc2nn(-c3ccc(C4CCC4)cc3Cl)c3c2C(C1)N(C(=O)c1cnc(C(F)(F)F)cc1N)CC3 (stereo not shown) [Compound 241, 1-(5-(4-amino-6-(trifluoromethyl)nicotinoyl)-2-(2-chloro-4-cyclobutylphenyl)-2,3,4,5,5a,6,8,9-octahydro-7H-1,2,5,7-tetraazabenzo[cd]azulen-7-yl)prop-2-en-1-one] | 1 to 100 | > 3000 | – | –
2 | < 0.0015 | 0.005 to 0.015 | C=CC(=O)N1CCc2nn(-c3ccc(C4CC4)cc3O)c3c2C(C1)N(C(=O)c1ccc(Br)nc1N)CC3 (stereo not shown) [Compound 193, 1-(5-(2-amino-6-bromonicotinoyl)-2-(4-cyclopropyl-2-hydroxyphenyl)-2,3,4,5,5a,6,8,9-octahydro-7H-1,2,5,7-tetraazabenzo[cd]azulen-7-yl)prop-2-en-1-one] | 1 to 100 | > 3000 | – | –
3 | < 0.0015 | 0.005 to 0.015 | C=CC(=O)N1CCc2nn(-c3ccc(C4CC4)cc3O)c3c2C(C1)N(C(=O)c1cnc(OC(F)F)cc1N)CC3 (stereo not shown) [Compound 192, 1-(5-(4-amino-6-(difluoromethoxy)nicotinoyl)-2-(4-cyclopropyl-2-hydroxyphenyl)-2,3,4,5,5a,6,8,9-octahydro-7H-1,2,5,7-tetraazabenzo[cd]azulen-7-yl)prop-2-en-1-one] | 1 to 100 | > 3000 | – | –
4 | < 0.0015 | 0.005 to 0.015 | C=CC(=O)N1CCc2nn(-c3ccc(C4CCC4)cc3O)c3c2C(C1)N(C(=O)c1ccc(Br)c2nc(C(F)F)[nH]c12)CC3 (stereo not shown) [Compound 90, 1-(5-(4-bromo-2-(difluoromethyl)-1H-benzo[d]imidazole-7-carbonyl)-2-(4-cyclobutyl-2-hydroxyphenyl)-2,3,4,5,5a,6,8,9-octahydro-7H-1,2,5,7-tetraazabenzo[cd]azulen-7-yl)prop-2-en-1-one] | 1 to 100 | > 3000 | – | –
5 | < 0.0015 | 0.005 to 0.015 | C=CC(=O)N1CCc2nn(-c3ccc(C4CCC4)cc3O)c3c2C(C1)N(C(=O)c1ccc(C(F)F)nc1N)CC3 (stereo not shown) [Compound 146, 1-(5-(2-amino-6-(difluoromethyl)nicotinoyl)-2-(4-cyclobutyl-2-hydroxyphenyl)-2,3,4,5,5a,6,8,9-octahydro-7H-1,2,5,7-tetraazabenzo[cd]azulen-7-yl)prop-2-en-1-one] | 1 to 100 | > 3000 | – | –
6 | < 0.0015 | 0.005 to 0.015 | C=CC(=O)N1CCc2nn(-c3ccc(C4CCC4)cc3O)c3c2C(C1)N(C(=O)c1ccc(C(F)(F)F)c2[nH]ncc12)CC3 (stereo not shown) [Compound 97, 1-(2-(4-cyclobutyl-2-hydroxyphenyl)-5-(7-(trifluoromethyl)-1H-indazole-4-carbonyl)-2,3,4,5,5a,6,8,9-octahydro-7H-1,2,5,7-tetraazabenzo[cd]azulen-7-yl)prop-2-en-1-one] | 1 to 100 | > 3000 | – | –

Second part, the compound before the results:

Row | SMILES | AC50 [3] [µM] | AC50 [4] [µM] | AC50 ([1]; Homo sapiens, HCT-116, 168 h) [nM] | AC50 ([2]; Homo sapiens, HT-29, 168 h) [nM] | AC50 [1] [nM] | AC50 [2] [nM]
7 | C=CC(=O)N1CCc2nn(-c3cc(F)c(C4CC4)c(F)c3O)c3c2C(C1)N(C(=O)c1cnc(C(F)(F)F)cc1N)CC3 (stereo not shown) [Compound 244, 1-(5-(4-amino-6-(trifluoromethyl)nicotinoyl)-2-(4-cyclopropyl-3,5-difluoro-2-hydroxyphenyl)-2,3,4,5,5a,6,8,9-octahydro-7H-1,2,5,7-tetraazabenzo[cd]azulen-7-yl)prop-2-en-1-one] | 0.0015 to 0.005 | 0.015 to 0.055 | 1 to 100 | > 3000 | – | –
8 | C=CC(=O)N1CCc2nn(Cc3ccccc3)c3c2C(C1)N(C(=O)c1cnc(C(F)(F)F)cc1N)CC3 (stereo not shown) [Compound 201, 1-(5-(4-amino-6-(trifluoromethyl)nicotinoyl)-2-benzyl-2,3,4,5,5a,6,8,9-octahydro-7H-1,2,5,7-tetraazabenzo[cd]azulen-7-yl)prop-2-en-1-one] | > 0.055 | < 0.0015 | > 1000 | > 3000 | – | –
9 | C=CC(=O)N1CC(OC)c2nn(-c3ccc(C4CCC4)cc3)c3c2C(C1)N(C(=O)c1cnc(C(F)(F)F)c(O)c1)CC3 (stereo not shown) [Compound 156, 1-(2-(4-cyclobutylphenyl)-5-(5-hydroxy-6-(trifluoromethyl)nicotinoyl)-9-methoxy-2,3,4,5,5a,6,8,9-octahydro-7H-1,2,5,7-tetraazabenzo[cd]azulen-7-yl)prop-2-en-1-one] | 0.0015 to 0.005 | 0.005 to 0.015 | 1 to 100 | > 3000 | – | –
10 | C=CC(=O)N1CCc2nn(-c3ccc(C4CC4)cc3)c3c2C(C1)N(C(=O)c1ccc(C(F)(F)F)nc1O)CC3 (stereo not shown) [Compound 109, 1-(2-(4-cyclopropylphenyl)-5-(2-hydroxy-6-(trifluoromethyl)nicotinoyl)-2,3,4,5,5a,6,8,9-octahydro-7H-1,2,5,7-tetraazabenzo[cd]azulen-7-yl)prop-2-en-1-one] | 0.005 to 0.015 | 0.015 to 0.055 | 250 to 500 | > 3000 | – | –
11 | C=CC(=O)N1CCc2nn(-c3ccc(C4CC4)c(F)c3OC)c3c2C(C1)N(C(=O)c1cnc(C(F)(F)F)c(O)c1)CC3 (stereo not shown) [Compound 63, 1-(2-(4-cyclopropyl-3-fluoro-2-methoxyphenyl)-5-(5-hydroxy-6-(trifluoromethyl)nicotinoyl)-2,3,4,5,5a,6,8,9-octahydro-7H-1,2,5,7-tetraazabenzo[cd]azulen-7-yl)prop-2-en-1-one] | 0.0015 to 0.005 | 0.015 to 0.055 | 500 to 1000 | > 3000 | – | –
12 | C=CC(=O)N1CC(C)c2nn(-c3ccc(C4CC4)cc3O)c3c2C(C1)N(C(=O)c1cnc(C(F)(F)F)cc1N)CC3 (stereo not shown) [Compound 195, 1-(5-(4-amino-6-(trifluoromethyl)nicotinoyl)-2-(4-cyclopropyl-2-hydroxyphenyl)-9-methyl-2,3,4,5,5a,6,8,9-octahydro-7H-1,2,5,7-tetraazabenzo[cd]azulen-7-yl)prop-2-en-1-one] | < 0.0015 | 0.005 to 0.015 | – | – | 1 to 100 | > 3000
13 | C=CC(=O)N1CCc2nn(-c3ccc(C(C)C)c(F)c3N)c3c2C(C1)N(C(=O)c1cnc(C(F)(F)F)c(O)c1)CC3 (stereo not shown) [Compound 57, 1-(2-(2-amino-3-fluoro-4-isopropylphenyl)-5-(5-hydroxy-6-(trifluoromethyl)nicotinoyl)-2,3,4,5,5a,6,8,9-octahydro-7H-1,2,5,7-tetraazabenzo[cd]azulen-7-yl)prop-2-en-1-one] | 0.0015 to 0.005 | 0.015 to 0.055 | 100 to 250 | > 3000 | – | –
14 | C=CC(=O)N1CCc2nn(-c3ccc(C(C)C)cc3)c3c2C(C1)N(C(=O)c1ccc(Br)c(C(C)(C)O)c1)CC3 (stereo not shown) [Compound 102, 1-(5-(4-bromo-3-(2-hydroxypropan-2-yl)benzoyl)-2-(4-isopropylphenyl)-2,3,4,5,5a,6,8,9-octahydro-7H-1,2,5,7-tetraazabenzo[cd]azulen-7-yl)prop-2-en-1-one] | 0.005 to 0.015 | > 0.055 | 500 to 1000 | > 3000 | – | –
15 | C=CC(=O)N1CCc2nn(-c3ccc(C(C)C)cc3)c3c2C(C1)N(C(=O)c1ccc(Br)cc1C(N)=O)CC3 (stereo not shown) [Compound 61, 2-(7-acryloyl-2-(4-isopropylphenyl)-3,4,5,5a,6,7,8,9-octahydro-2H-1,2,5,7-tetraazabenzo[cd]azulene-5-carbonyl)-5-bromobenzamide] | 0.005 to 0.015 | > 0.055 | 250 to 500 | > 3000 | – | –
16 | C=CC(=O)N1CC(F)c2nn(-c3ccc(C4CCC4)cc3)c3c2C(C1)N(C(=O)c1ccc(Br)c2[nH]cnc12)CC3 (stereo not shown) [Compound 28, 1-(5-(7-bromo-1H-benzo[d]imidazole-4-carbonyl)-2-(4-cyclobutylphenyl)-9-fluoro-2,3,4,5,5a,6,8,9-octahydro-7H-1,2,5,7-tetraazabenzo[cd]azulen-7-yl)prop-2-en-1-one] | < 0.0015 | 0.0015 to 0.005 | 1 to 100 | 1000 to 3000 | – | –
17 | C=CC(=O)N1CCc2nn(-c3ccc(C(C)C)cc3)c3c2C(C1)N(C(=O)c1cnc(C(F)(F)F)c(OC)c1)CC3 (stereo not shown) [Compound 12, 1-(2-(4-isopropylphenyl)-5-(5-methoxy-6-(trifluoromethyl)nicotinoyl)-2,3,4,5,5a,6,8,9-octahydro-7H-1,2,5,7-tetraazabenzo[cd]azulen-7-yl)prop-2-en-1-one] | < 0.0015 | 0.015 to 0.055 | 1 to 100 | > 3000 | – | –
18 | C=CC(=O)N1CCc2nn(-c3ccc(C(C)C)cc3)c3c2C(C1)N(C(=O)c1ccc(Br)c(-c2cc[nH]n2)c1)CC3 (stereo not shown) [Compound 106, 1-(5-(4-bromo-3-(1H-pyrazol-3-yl)benzoyl)-2-(4-isopropylphenyl)-2,3,4,5,5a,6,8,9-octahydro-7H-1,2,5,7-tetraazabenzo[cd]azulen-7-yl)prop-2-en-1-one] | 0.0015 to 0.005 | > 0.055 | 250 to 500 | > 3000 | – | –
19 | C=CC(=O)N1CCc2nn(-c3ccc(C4CC4)cc3)c3c2C(C1)N(C(=O)c1cnc2c(C)nn(C)c2c1)CC3 (stereo not shown) [Compound 110, 1-(2-(4-cyclopropylphenyl)-5-(1,3-dimethyl-1H-pyrazolo[4,3-b]pyridine-6-carbonyl)-2,3,4,5,5a,6,8,9-octahydro-7H-1,2,5,7-tetraazabenzo[cd]azulen-7-yl)prop-2-en-1-one] | 0.005 to 0.015 | > 0.055 | 100 to 250 | > 3000 | – | –

Reference: patent US20250346600A1, “TRICYCLIC DERIVATIVES AND RELATED USES” (MOMA Therapeutics, Inc., priority 2023, published 2025)
